Test results reported in patent US20120115852A1, “HETEROCYCLIC COMPOUNDS AS AUTOTAXIN INHIBITORS” (Merck Patent Gesellschaft Mit Beschrankter Haftung, priority 2009, published 2012).
pIC50: −log10 of the molar value.

Molecular target: T1, recombinant autotaxin (Homo sapiens, UniProt Q13822)
T1 construct: made in house; host or cells: Hi5 insect cells (baculovirus)
Test: Autotaxin test (enzyme test), Amplex Red fluorescence with LPC substrate
Assay type: biochemical
Conditions: autotaxin inhibition (enzyme test); for remaining activity at 10 µM: 10 μM compound, read-out: % Control at 10 μM
Summary of the method: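 Purified recombinant autotaxin (baculovirus Hi5-expressed) pre-incubated with compound 30 min at 22° C, then LPC (final 75 μM) added and reacted 90 min at 37° C in Tris pH 8 buffer with CaCl2. Choline released was coupled via alkaline phosphatase, choline oxidase and peroxidase to Amplex Red; resorufin fluorescence read in kinetic mode (ex 485/em 612 nm).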

SMILES	remaining activity at 10 µM [%]	pIC50
CC(C)(C)CC(=O)N1CCN2C(=O)c3cc(Br)ccc3NC(=O)C2C1 (stereo not drawn) [Compound A142]	85	–
Cc1ccc(-c2ccc3c(c2)C(=O)N2CCN(C(=O)CC(C)(C)C)CC2C(=O)N3)cc1C (stereo not drawn) [Compound A90, 2-(3,3-Dimethylbutyryl)-7-(3,4-dimethylphenyl)-1,3,4,11a-tetrahydro-2H,10H-2,4a,10-triaza-dibenzo[a,d]cycloheptene-5,11-dione]	24	< 6.00
O=C1Nc2ccc(-c3ccccc3F)cc2C(=O)N2CCN(C(=O)c3ccccn3)CC12 (stereo not drawn) [Compound A15, 7-(2-Fluorophenyl)-2-(pyridine-2-carbonyl)-1,3,4,11a-tetrahydro-2H,10H-2,4a,10-triaza-dibenzo[a,d]cycloheptene-5,11-dione]	55	< 6.00
CC(C)(C)CC(=O)N1CCN2C(=O)c3cc(-c4cc(Cl)cc(Cl)c4)ccc3NC(=O)C2C1 (stereo not drawn) [Compound A19, 7-(3,5-Dichlorophenyl)-2-(3,3-dimethylbutyryl)-1,3,4,11a-tetrahydro-2H,10H-2,4a,10-triaza-dibenzo[a,d]cycloheptene-5,11-dione]	65	< 6.00
CC(=O)N1CCN2C(=O)c3cc(-c4ccc(Cl)cc4F)ccc3NC(=O)[C@H]2C1 [Compound A116, (R)-2-Acetyl-7-(4-chloro-2-fluorophenyl)-1,3,4,11a-tetrahydro-2H,10H-2,4a,10-triaza-dibenzo[a,d]cycloheptene-5,11-dione]	71	< 6.00
O=C1Nc2ccc(-c3ccccc3F)cc2C(=O)N2CCN(C(=O)C3CCCCC3)C[C@H]12 [Compound B19]	41	< 6.00
O=C(O)CCCC(=O)N1CCN2C(=O)c3cc(-c4ccco4)ccc3NC(=O)[C@H]2C1 [Compound B7]	70	–
O=C([C@@H]1CCCN1C1CCNCC1)N1CCN2C(=O)c3cc(-c4ccc(Cl)cc4F)ccc3N(CCC3CCNCC3)C(=O)[C@H]2C1 [Compound A158]	21	< 6.00
O=C1Nc2ccc(-c3ccc(Cl)cc3)cc2C(=O)N2CCN(C(=O)C3CCCN3C(=O)c3ccncc3)CC12 (stereo not drawn) [Compound A110, 7-(4-Chlorophenyl)-2-[1-(pyridine-4-carbonyl)-pyrrolidine-2-carbonyl]-1,3,4,11a-tetrahydro-2H,10H-2,4a,10-triazadibenzo[a,d]cycloheptene-5,11-dione]	51	< 6.00
CC(C)(C)[C@@H](NC=O)C(=O)N1CCN2C(=O)c3cc(-c4ccc(Cl)cc4)ccc3NC(=O)C2C1 (stereo partly drawn) [Compound A55, N-{(R)-1-[7-(4-Chlorophenyl)-5,11-dioxo-3,4,5,10,11,11a-hexahydro-1H-2,4a,10-triaza-dibenzo[a,d]cycloheptene-2-carbonyl]-2,2-dimethylpropyl}formamide]	71	–
CC(C)(C)CC(=O)N1CCN2C(=O)c3cc(-c4ccccc4)ccc3NC(=O)C2C1 (stereo not drawn) [Compound A131, 2-(3,3-Dimethylbutyryl)-7-phenyl-1,3,4,11a-tetrahydro-2H,10H-2,4a,10-triaza-dibenzo[a,d]cycloheptene-5,11-dione]	14	< 6.00
O=C1Nc2ccc(-c3ccc(Cl)cc3)cc2C(=O)N2CCN(C(=O)[C@@H]3CCCN3C3CCNCC3)C[C@@H]12 [Compound A81, (S)-7-(4-Chlorophenyl)-2-((S)-1-piperidin-4-yl-pyrrolidine-2-carbonyl)-1,3,4,11a-tetrahydro-2H,10H-2,4a,10-triazadibenzo[a,d]cycloheptene-5,11-dione]	33	–
Nc1nc(C(=O)N2CCN3C(=O)c4cc(-c5ccc(Cl)cc5)ccc4NC(=O)C3C2)cs1 (stereo not drawn) [Compound A50, 2-(2-Aminothiazole-4-carbonyl)-7-(4-chlorophenyl)-1,3,4,11a-tetrahydro-2H,10H-2,4a,10-triaza-dibenzo[a,d]cycloheptene-5,11-dione]	80	–
CN1CCN(C(=O)CN2C(=O)[C@@H]3CN(C(=O)CC(C)(C)C)CCN3C(=O)c3cc(-c4ccc(Cl)cc4F)ccc32)CC1 [Compound A162]	30	< 6.00
O=C1Nc2ccc(-c3ccco3)cc2C(=O)N2CCN(C(=O)C3CC3)C[C@H]12 [Compound B16]	82	–
CC(C)(C)[C@H](O)C(=O)N1CCN2C(=O)c3cc(-c4ccc(Cl)cc4)ccc3NC(=O)C2C1 (stereo partly drawn) [Compound A34, 7-(4-Chlorophenyl)-2-((S)-2-hydroxy-3,3-dimethylbutyryl)-1,3,4,11a-tetrahydro-2H,10H-2,4a,10-triazadibenzo[a,d]cycloheptene-5,11-dione]	–	6.00 to 7.00

SMILES	remaining activity at 10 µM [%]	pIC50
CC(C)(C)CC(=O)N1CCN2C(=O)c3cc(-c4ccc(C(F)(F)F)cc4)ccc3NC(=O)C2C1 (stereo not drawn) [Compound A18, 2-(3,3-Dimethylbutyryl)-7-(4-trifluoromethylphenyl)-1,3,4,11a-tetrahydro-2H,10H-2,4a,10-triaza-dibenzo[a,d]cycloheptene-5,11-dione]	70	< 6.00
O=C1Nc2ccc(-c3cccs3)cc2C(=O)N2CCN(C(=O)CO)C[C@H]12 [Compound A8, (R)-2-(2-Hydroxyacetyl)-7-thiophen-2-yl-1,3,4,11a-tetrahydro-2H,10H-2,4a,10-triazadibenzo[a,d]-cycloheptene-5,11-dione]	67	–
O=C1Nc2ccc(-c3ccc(Cl)cc3)cc2C(=O)N2CCN(C(=O)C3(c4ccccc4)CCCC3)CC12 (stereo not drawn) [Compound A106, 7-(4-Chlorophenyl)-2-(1-phenylcyclopentane-carbonyl)-1,3,4,11a-tetrahydro-2H,10H-2,4a,10-triazadibenzo[a,d]cycloheptene-5,11-dione]	-37	6.00 to 7.00
O=C1Nc2ccc(-c3ccccc3F)cc2C(=O)N2CCN(C(=O)[C@@H]3CSCN3)C[C@@H]12 [Compound A16, (S)-7-(2-Fluorophenyl)-2-((R)-thiazolidine-4-carbonyl)-1,3,4,11a-tetrahydro-2H,10H-2,4a,10-triazadibenzo[a,d]cycloheptene-5,11-dione]	18	< 6.00
O=C1Nc2ccc(-c3ccc(Cl)cc3)cc2C(=O)N2CCN(C(=O)c3cnc[nH]3)CC12 (stereo not drawn) [Compound A75, 7-(4-Chlorophenyl)-2-(3H-imidazole-4-carbonyl)-1,3,4,11a-tetrahydro-2H,10H-2,4a,10-triaza-dibenzo[a,d]cycloheptene-5,11-dione]	55	–
CC(C)(C)CC(=O)N1CCN2C(=O)c3cc(-c4cc(F)c(Cl)c(F)c4)ccc3NC(=O)C2C1 (stereo not drawn) [Compound A79, 7-(4-Chloro-3,5-difluorophenyl)-2-(3,3-dimethyl-butyryl)-1,3,4,11a-tetrahydro-2H,10H-2,4a,10-triazadibenzo[a,d]cycloheptene-5,11-dione]	-14	6.00 to 7.00
O=C1Nc2ccc(-c3ccc(Cl)cc3F)cc2C(=O)N2CCN(C(=O)Cc3ccccn3)CC12 (stereo not drawn) [Compound A30, 7-(4-Chloro-2-fluorophenyl)-2-(2-pyridin-2-ylacetyl)-1,3,4,11a-tetrahydro-2H,10H-2,4a,10-triaza-dibenzo[a,d]cycloheptene-5,11-dione]	23	< 6.00
COc1ccc(-c2ccc3c(c2)C(=O)N2CCN(C(=O)[C@@H](O)c4ccccc4)C[C@@H]2C(=O)N3)cc1 [Compound B2]	84	–
CC(C)(C)CC(=O)N1CCN2C(=O)c3cc(-c4ccc(Cl)cc4F)ccc3N(CC(N)=O)C(=O)C2C1 (stereo not drawn) [Compound A145]	2	6.00 to 7.00
O=C1Nc2ccc(-c3ccc(Cl)cc3)cc2C(=O)N2CCN(C(=O)C3(c4ccccc4)CC3)CC12 (stereo not drawn) [Compound A49, 7-(4-Chlorophenyl)-2-(1-phenylcyclopropane-carbonyl)-1,3,4,11a-tetrahydro-2H,10H-2,4a,10-triazadibenzo[a,d]cycloheptene-5,11-dione]	–	< 6.00
CC(C)(C)CC(=O)N1CCN2C(=O)c3cc(-c4ccc(F)cc4)ccc3NC(=O)C2C1 (stereo not drawn) [Compound A130, 2-(3,3-Dimethylbutyryl)-7-(4-fluorophenyl)-1,3,4,11a-tetrahydro-2H,10H-2,4a,10-triaza-dibenzo[a,d]cycloheptene-5,11-dione]	-1	< 6.00
O=C1Nc2ccc(-c3ccc(Cl)cc3)cc2C(=O)N2CCN(C(=O)Nc3ccccc3)CC12 (stereo not drawn) [Compound A48, N-Phenyl-7-(4-chlorophenyl)-5,11-dioxo-3,4,5,10,11,11a-hexahydro-1H-2,4a,10-triaza-dibenzo[a,d]cycloheptene-2-carboxamide]	20	< 6.00
O=C1Nc2ccc(-c3ccc(Cl)cc3)cc2C(=O)N2CCN(C(=O)C(O)c3cccc(Cl)c3)CC12 (stereo not drawn) [Compound A41, 7-(4-Chlorophenyl)-2-[2-(3-chlorophenyl)-2-hydroxyacetyl]-1,3,4,11a-tetrahydro-2H,10H-2,4a,10-triazadibenzo[a,d]cycloheptene-5,11-dione]	68	< 6.00
O=C1Nc2ccc(-c3ccc(Cl)cc3)cc2C(=O)N2CCN(C(=O)[C@H](O)c3ccccc3)CC12 (stereo partly drawn) [Compound A43, 7-(4-Chlorophenyl)-2-((R)-2-hydroxy-2-phenylacetyl)-1,3,4,11a-tetrahydro-2H,10H-2,4a,10-triazadibenzo[a,d]cycloheptene-5,11-dione]	31	< 6.00
CC1(C)SCNC1C(=O)N1CCN2C(=O)c3cc(-c4ccc(Cl)cc4)ccc3NC(=O)C2C1 (stereo not drawn) [Compound A141, 7-(4-Chlorophenyl)-2-(5,5-dimethylthiazolidine-4-carbonyl)-1,3,4,11a-tetrahydro-2H,10H-2,4a,10-triazadibenzo[a,d]cycloheptene-5,11-dione]	-21	6.00 to 7.00
